Substitutions are numbered along the chain they refer to.
Experiments:
[1] = biological target: T1, active smFRET construct of hDPP III (still containing residue Glu-451) (Homo sapiens, UniProt Q9NY33, C19S/C519S/C654S/E207C/S491C); test: Fluorometric activity assay, release of β-naphthylamine, active smFRET construct; format: biochemical; conditions: active smFRET construct 50 pM; substrate 1 μM to 200 μM; 37 °C, 50 mM Tris-HCl pH 8.0, 100 mM NaCl; fluorescence ex 320 nm, em 420 nm
T1 construct: His6-tag with TEV protease cleavage site (N, cleaved yes); made in house; host or cells: E. coli BL21-CodonPlus (DE3) RIL
T1 sequence (Q9NY33 1-726 C19S/E207C/S491C/C519S/C654S limits assumed): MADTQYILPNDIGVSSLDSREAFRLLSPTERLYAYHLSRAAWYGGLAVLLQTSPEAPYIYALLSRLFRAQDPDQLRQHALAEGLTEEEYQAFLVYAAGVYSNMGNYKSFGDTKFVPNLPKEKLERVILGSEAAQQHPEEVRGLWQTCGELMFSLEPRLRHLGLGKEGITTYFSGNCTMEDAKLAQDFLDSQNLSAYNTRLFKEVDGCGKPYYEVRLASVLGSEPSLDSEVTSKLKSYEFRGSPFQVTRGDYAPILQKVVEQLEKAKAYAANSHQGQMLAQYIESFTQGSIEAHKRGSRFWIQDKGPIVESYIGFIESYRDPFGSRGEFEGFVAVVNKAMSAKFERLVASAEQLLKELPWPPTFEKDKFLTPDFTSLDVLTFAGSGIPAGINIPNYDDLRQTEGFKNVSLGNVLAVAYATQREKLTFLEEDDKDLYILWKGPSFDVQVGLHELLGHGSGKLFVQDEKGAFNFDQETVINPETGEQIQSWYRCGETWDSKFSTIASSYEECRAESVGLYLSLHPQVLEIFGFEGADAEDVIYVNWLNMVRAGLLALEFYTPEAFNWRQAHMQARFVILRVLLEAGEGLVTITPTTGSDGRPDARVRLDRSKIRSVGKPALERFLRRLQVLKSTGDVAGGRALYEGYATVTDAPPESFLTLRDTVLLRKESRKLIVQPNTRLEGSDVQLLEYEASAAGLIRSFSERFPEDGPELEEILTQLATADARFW
Procedure: (§1) The enzymatic activities of the wild-type enzyme and the active smFRET construct (still containing residue Glu-451) were determined using a fluorometric assay, which measures the release of β-naphthylamine upon cleavage of the synthetic substrate Arg-Arg-β-naphthylamide (excitation at 320 nm and emission at 420 nm)[41]. Kinetic parameters were determined at 37 °C in 50mM Tris-HCl buffer pH 8.0, containing 100 mM NaCl. The protein concentrations were 20 pM (wild-type enzyme) and 50 pM (smFRET construct). The substrate concentration was varied from 1 μM to 200 μM. The initial rate of fluorescence increase was monitored continuously for 5 min and was converted into the velocity of the reaction using a calibration curve for β-naphthylamine. Non-linear regression using the program GraphPad Prism (www.graphpad.com) yielded the values for vmax and KM.

[2] = biological target: T2, hDPP III, wild-type enzyme (Homo sapiens, UniProt Q9NY33); test: Fluorometric activity assay, release of β-naphthylamine, wild-type enzyme; format: biochemical; conditions: wild-type enzyme 20 pM; substrate 1 μM to 200 μM; 37 °C, 50 mM Tris-HCl pH 8.0, 100 mM NaCl; fluorescence ex 320 nm, em 420 nm
T2 sequence (Q9NY33 1-737): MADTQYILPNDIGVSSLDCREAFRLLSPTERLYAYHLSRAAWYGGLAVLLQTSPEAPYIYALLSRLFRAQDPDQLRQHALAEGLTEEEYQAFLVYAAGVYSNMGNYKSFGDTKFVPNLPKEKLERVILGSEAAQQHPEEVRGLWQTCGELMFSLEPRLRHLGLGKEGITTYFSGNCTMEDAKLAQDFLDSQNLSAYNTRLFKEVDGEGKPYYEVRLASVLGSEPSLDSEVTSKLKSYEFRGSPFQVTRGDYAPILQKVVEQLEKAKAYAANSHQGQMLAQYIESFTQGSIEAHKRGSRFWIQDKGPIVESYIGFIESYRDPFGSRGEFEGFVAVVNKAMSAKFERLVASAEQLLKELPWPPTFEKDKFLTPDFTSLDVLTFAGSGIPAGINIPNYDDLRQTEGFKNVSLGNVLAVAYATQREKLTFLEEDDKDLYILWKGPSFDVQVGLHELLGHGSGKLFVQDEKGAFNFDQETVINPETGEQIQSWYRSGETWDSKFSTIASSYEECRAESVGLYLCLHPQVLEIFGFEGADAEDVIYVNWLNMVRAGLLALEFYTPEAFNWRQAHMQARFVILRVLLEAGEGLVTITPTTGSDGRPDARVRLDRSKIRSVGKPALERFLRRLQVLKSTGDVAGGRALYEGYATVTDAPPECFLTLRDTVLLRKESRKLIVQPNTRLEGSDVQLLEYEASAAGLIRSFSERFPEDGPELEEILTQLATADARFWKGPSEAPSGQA
Procedure: as §1

rat DPP III = tested on: rat DPP III; set-up: method as in PMID 12895665; conditions: cited from earlier work
human DPP III = conditions: cited from earlier work
hDPP III [3] = tested on: hDPP III; set-up: method as in 2 sources, ref 22 = [22]; PMID 10822105; doi:10.1016/s0196-9781(00)00174-1; Yamamoto Y. , Hashimoto J. , Shimamura M. , Yamaguchi T. & Hazato T. Characterization of tynorphin, a potent endogenous inhibitor of dipeptidyl peptidaseIII . Peptides 21 , 503 – 508 ( 2000 ). 1082210 ||| ref 1 = [1]; PMID 21794094; doi:10.1111/j.1742-4658.2011.08275.x; Prajapati S. C. & Chauhan S. S. Dipeptidyl peptidase III: a multifaceted oligopeptide N-end cutter . FEBS J. 278 , 3256 – 3276 ( 2011 ). 21794094 10.1111/j.1742-4658.2011.08275.x; conditions: cited from earlier work
[4] = tested on: partially purified DPP III from monkey brain; set-up: method as in PMID 10822105; conditions: cited from earlier work
hDPP III [5] = conditions: cited from earlier work
Excerpt: The octapeptide angiotensin-II (DRVYIHPF) is a potent vasoconstrictor and is involved in regulating mammalian blood pressure.

inactive hDPP3 variant = biological target: inactive hDPP3 variant; set-up: method as in PMID 22493238; conditions: cited from earlier work
[6] = biological target: hDPP3(1-726) E451A, inactive hDPP III variant used for ITC (human) (UniProt Q9NY33); test: ITC; 800 μM angiotensin II in the syringe into 40 μM enzyme in the cell; 25 °C; 50 mM Tris-HCl pH 8.0, 100 mM NaCl; one-binding-site model
[7] = biological target: T3, human dipeptidyl peptidase III (1-726), inactive E451A variant, smFRET construct (C19S, C519S, C654S, E207C, … (human, UniProt Q9NY33 1-726, E451A | C19 exchanged to serine | C519 exchanged to serine | C654 exchanged to …)); test: crystal structure; co-crystallisation; protein 8 mg mL^-1, protein:ligand about 1:30, sitting drop vapour diffusion at 20 °C, microseeding with crystals of the angiotensin II complex; conditions: both partners purified
T3 construct: human dipeptidyl peptidase III, residues 1-726 (lacks 11 C-terminal residues), with E451A and five surface exchanges made for smFRET; Vector pET28-MHL; His6-tag removed with TEV protease, so residues of the cleavage site may remain at the N-terminus; also called hDPP III; hDPP3; source: E. coli BL21-CodonPlus (DE3) RIL, purified (Ni-NTA, ResourceQ anion exchange, TEV cleavage, Superdex 200); not …
T3 sequence (looked up): T1 sequence (Q9NY33 1-726 C19S/E207C/S491C/C519S/C654S limits assumed) with E451A

“Arg-Arg-β-naphthylamide [synthetic substrate releasing β-naphthylamine upon cleavage]” gave a Km [1] of 30 µM, a kcat [1] of 28 s⁻¹ and a Km [2] of 24 µM. It also gave a kcat [2] of 24 s⁻¹.

For IVYPW, the “relative inhibitory strength (in words)” value (rat DPP III; compared with tynorphin, presumably ref 23) is given as “a stronger inhibitor than tynorphin”, the “inhibition (in words)” value (rat DPP III; rat DPP III) is given as “nanomolar affinity” and the “inhibition of the enzyme (in words)” value (human DPP III) is given as “described as an inhibitor of the enzyme”.

For “VVYPW [tynorphin, synthetic opioid peptide, a derivative of spinorphin]”, the “period over which the peptide appears to be hydrolysed” value (hDPP III [3]) is listed as “about 24 hours”, the “inhibition of human DPP III (in words)” value (human DPP III) is listed as “described as an inhibitor of human DPP III” and the “inhibition (in words)” value [4] is listed as “shown to inhibit partially purified DPP III from monkey brain”. For the same molecule, the “character of binding (thermodynamic, in words)” value (hDPP III [5]) was “endothermic process driven by entropic changes”.

In the case of “YGGFL [Leu-enkephalin, endogenous opioid neurotransmitter (YGGFL)]”, the Kd (inactive hDPP3 variant) is listed as 3600 nM, the “cleavage by hDPP III (in words)” value (hDPP III [3]) is listed as “shown to be cleaved by hDPP III” and the “in vitro substrate of hDPP III (in words)” value (“in vitro substrate” below) (hDPP III [3]) is listed as “known in vitro substrates of hDPP III”.

For “YGGFM [Met-enkephalin, endogenous opioid neurotransmitter (YGGFM)]”, the “cleavage by hDPP III (in words)” value (hDPP III [3]) is listed as “shown to be cleaved by hDPP III” and the “in vitro substrate” value (hDPP III [3]) is listed as “known in vitro substrates of hDPP III”.

In the case of “YPFF-NH2 [endomorphin-2, opioid peptide with amidated C-terminus]”, the “in vitro substrate” value (hDPP III [3]) is given as “known in vitro substrates of hDPP III”.

angiotensin-II (peptide) gave a Kd [6] of 1640 nM and a dH [6] of 3.64 kcal/mol.

B1: Met-enkephalin (peptide)
peptide: YGGFM
notes: Met-enkephalin, endogenous opioid pentapeptide cut from proenkephalin-A; also called YGGFM
B1: binds [7].

B2: Leu-enkephalin (peptide)
peptide: YGGFL
notes: Leu-enkephalin, endogenous opioid pentapeptide cut from proenkephalin-A (also held in prodynorphin); also called YGGFL
B2: binds [7].

B3: synthetic opioid peptide IVYPW (peptide)
peptide: IVYPW
notes: synthetic opioid peptide, similar to tynorphin (VVYPW), a derivative of spinorphin
B3: binds [7].

Source: paper PMC4824452, “Substrate complexes of human dipeptidyl peptidase III reveal the mechanism of enzyme inhibition” (Scientific Reports, 2016)
